Entries after “also recorded” stand apart in the source; their conditions may differ.
Columns and labels:
[1] = system: selected modules (FAP) that activate malachite green; assay: Fluorogen activation by selected FAP modules (switching ratio); assay type: biochemical; settings: in buffer
Description: Malachite green can serve as an acceptor, as we already have selected modules that activate it with switching ratios of >15,000 fold in buffer. Additional fluorogens may be designed and synthesized. Unsymmetric polymethine dyes, and analogs of indocyanine green may be used as fluorogens, as can many of the polarity sensing dyes (e.g. merocyanine and styryl dyes) with far-red and near IR emission. Fluorogens are screened for nonspecific activation in cell lysate before incorporation into the biosensor composition. Quenching and activation by selected FAP modules are characterized in buffer and cell lysate to determine the activation ratio. FAP/biosensor pairs with acceptable switching ratios are characterized by FCS and TIRF-single molecule microscopy.

[2] = Calcium titration curve of MG-PEG7-Rhod2 sodium salt with dL5, fluorescence by plate reader; assay type: binding; settings: with dL5 (tandem dimer of L5-MG E52D L91S); free Ca 0-39 μM calibration buffers; FIG. 15
Method: A calcium titration curve for MG-PEG7-Rhod2 sodium salt (compound 18 of Example 8, was measured.
Compound 18 and 2 μL of dL5 (A tandem dimer of L5-MG E52D L91S (FIG. 1A) separated by a G4S linker) is dissolved in each 600 μL of 0 calcium solution^1 (solution A, Invitrogen™ Cat. no. C-3008MP Calcium Calibration Buffer Kit #1) and 600 μL 39 calcium solution (solution B, Invitrogen™ Cat. no. C-3008MP Calcium Calibration Buffer Kit #1). Each volume of A and B solutions was added into 96 well black plate as described in Table 1.
And then, each solution was measured fluorescence by plate reader (TECAN safire2).

[3] = system: malachite green binding FAP clone; assay: Fluorescence correlation spectroscopy (FCS) of dye with MG-binding FAP; settings: 500-fold molar excess of protein, FIG. 6
Description: To assess the feasibility of this approach, two key criteria have been met. First, the spectral properties of Rhod-2 are almost identical to the CY3 that has already been used as a successful donor molecule. Second, the rhodamine moiety, which is structurally similar to malachite green, has been shown not to bind or block binding of the MG-binding FAP module. […] These findings support the design of this probe.

CN(C)c1ccc(C(=C2C=CC(=[N+](C)C)C=C2)c2ccccc2)cc1 [Malachite green]
switching ratio (fluorescence activation by FAP) [1]: > 15,000 fold

MG-PEG7-Rhod2 Sodium Salt [Compound 18]
mid-point for calcium binding (ratio of rhod2 excitation peak to MG excitation peak at ~640 nm vs free calcium) [2]: 0.5 micro molar

CCN(CC)c1ccc2c(-c3ccccc3C(=O)O)c3ccc(=[N+](CC)CC)cc-3oc2c1.[Cl-] [rhodamine B]
binding to / inhibition of MG binding of the malachite green binding FAP [3]: does not associate with the malachite green binding clone; also recorded: neither binds to nor inhibits normal binding

Reference: patent US9995679B2, “Targeted probes of cellular physiology” (Carnegie Mellon University, priority 2010, dated 2018)
